Experimental data from paper PMC9416745, “The Effect of 1,2,4-Triazole-3-thiol Derivatives Bearing Hydrazone Moiety on Cancer Cell Migration and Growth of Melanoma, Breast, and Pancreatic Cancer Spheroids” (Pharmaceuticals, 2022).

Assays:
melanoma cell = test system: melanoma cell; parameters: method as in PMID 27572607; conditions: cited from earlier work
[1] = test system: IGR39, MDA-MB-231 and Panc-1 cell lines; test: MTT cell viability assay, result stated for all tested cancer cell lines together; format: cell-based, human; conditions: 72 h; for EC50: Homo sapiens, range over cancer cell lines, read-out: EC50 values against the tested cancer cell lines (range)
Method: (§1) The effect of synthesized compounds on cell viability was studied using 3-(4,5-dimethylthiazol-2-yl)-2,5-diphenyltetrazolium bromide (MTT; Sigma-Aldrich Co., St Louis, MO, USA) assay, as described elsewhere. Briefly, IGR39, MDA-MB-231, Panc-1, and HF cells were seeded in 96-well plates (Corning) in triplicate at a volume of 100 μL (IGR39, MDA-MB-231 and Panc-1: 4 × 10^3 cells/well; HF: 5 × 10^3 cells/well). After 24 h, cells were treated with 50 μM of tested compounds. After 72 h, the MTT reagent was added and cells were incubated for 4 h. Then the medium was aspirated, and the formed formazan crystals were dissolved in 100 μL DMSO (Sigma-Aldrich Co., St. Louis, MO, USA). The absorbance was measured at 570 and 630 nm using a multi-detection microplate reader. The compound effect on cell viability was calculated using the formula:(1) Relative cell viability (%)=A−A0/ANC−A0 where
(§2) • A—mean of absorbance of the tested compound, • A0—mean of absorbance of blank (no cells, positive control), and • ANC—mean of absorbance of negative control (only cells, no treatment).
(§3) The compound serial dilutions from 50 µM to 1.56 µM were made in a medium and added to the cells in triplicates. The EC50 value representing the concentration of a compound causing 50% reduction of cancer cell metabolic activity was calculated using the Hill equation.

IGR39 cells = test: MTT, effect of 10 µM compound on IGR39 cell viability (Procedure S1); format: cell-based; conditions: Homo sapiens, IGR-39, after 48 h of incubation
Method: (§4) The ‘Wound healing’ assay was used to evaluate compound activity on cell migration. […] The effect of this concentration on cell viability after 24 h, 48 h and 72 h was studied in separate experiments (Figures S58–60) using the MTT assay (the procedure is described in Supplementary Materials).
(§5) Procedure S1. Evaluation of 10 µM compound concentration effect on cell line viability.
(§6) The effect of 10 µM compounds on cell viability was studied using 3-(4,5-dimethylthiazol-2-yl)-2,5-diphenyltetrazolium bromide (MTT; Sigma-Aldrich Co., St Louis, MO, USA) assay. IGR39, MDA-MB-231, and Panc-1 cells were seeded in 96-well plates (Corning) in triplicates at a volume of 100 µL at 4 × 10^3 cells/well). After 24 h, the cells were treated with 10 µM of compounds 4, 7, 8, 10, 14, 17, and 18. After 24 h, 48 h and 72 h (only Panc-1 cells), the MTT reagent has been added and cells were incubated for 4 h. Then the medium was aspirated, and the formed formazan crystals were dissolved in 100 µL DMSO (Sigma-Aldrich Co., St. Louis, MO, USA). The absorbance was measured at 570 and 630 nm using a multi-detection microplate reader. Compound effect on cell viability was calculated according to a formula:
(§7) Relative cell viability ሺ%ሻ = A− A଴
(§8) A – mean of absorbance of tested compound, A0 – mean of absorbance of blank (no cells, positive control), ANC – mean of absorbance of negative control (only cells, no treatment).

melanoma IGR39 spheroids = test: 3D cell cultures (spheroids), IGR39; format: cell-based, human; conditions: 10 µM, 8 days of incubation
Method: (§9) Cancer cell spheroids were formed using the magnetic 3D Bioprinting method, as described elsewhere. Briefly, melanoma IGR39, triple-negative breast cancer MDA-MB-231 cells, pancreatic cancer Panc-1 cells, and human fibroblasts at 70% confluency in a 6-well plate were incubated with Nanoshuttle (n3D Biosciences, Inc., Houston, TX, USA) for 8 h at 37°C in a humidified atmosphere containing 5% CO2. Then cells were trypsinized, centrifuged, and seeded into an ultra-low attachment 96-well plate in a volume of 100 µL (1.5 × 10^3 cancer cells and 1.5 × 10^3 human fibroblasts/well). The plate was placed on a magnetic drive and incubated for 2 days at 37°C in a humidified atmosphere containing 5% CO2. Then the fresh medium containing 10 µM of the tested compound was added to the wells. Spheroids were captured every two days using the Olympus IX73 inverted microscope (OLYMPUS CORPORATION, Tokyo, Japan). Quantitative analysis of compound anticancer activity in spheroids was performed using ImageJ, version 1.53o (National Institutes of Health, USA) and Microsoft Office Excel 2016 software (Microsoft Corporation, Redmond, WA, USA).
(§10) On the last day of incubation, 10 µL of WST-1 reagent (Sigma-Aldrich Co, St. Louis, MO, USA) was added to each well with spheroids. After 10 h of incubation, 50 µL of liquid from each well were transferred to the new 96-well plate and the absorbance was measured at 460 and 530 nm using a multi-detection microplate reader. Spheroid cell viability was calculated using a formula provided in Section 3.2.2.

[2] = test system: MDA-MB-231 cell migration; test: 'Wound healing' cell migration assay, MDA-MB-231; format: cell-based, human; conditions: 10 µM, both after 24 h and 48 h of incubation
Method: (§11) Briefly, melanoma IGR39, human triple-negative breast cancer MDA-MB-231, and pancreatic carcinoma Panc-1 cells were seeded in 24-well plates at a density of 6 × 10^4 cells/well and incubated for 48 h in previously described cell culture medium at 37°C in a humidified atmosphere containing 5% CO2. Then the scratch was made using a 100 µL pipette tip. Cells were washed once with PBS, and the fresh medium containing 10 µM of compounds 4, 7, 8, 10, 14, 17, and 18 was added. Medium containing 0.1% DMSO was used as a negative control. Cells were incubated at 37 °C in a humidified atmosphere containing 5% CO2.
(§12) The ‘Wounds’ were captured at the intervals of 0 h, 24 h, 48 h and 72 h (only for the Panc-1 cell line) from scratch under the phase contrast microscope at a 4× magnification. The wound area was analysed using the ImageJ program (National Institute of Health, Bethesda, MD, USA).

[3] = test system: IGR39, MDA-MB-231 and Panc-1 tumour spheroids; test: 3D cell cultures (spheroids), stated for all three spheroid types; format: cell-based, human; conditions: 10 µM, 8 days of incubation
Method: as §9, §10

Panc-1 cells = test: MTT, effect of 10 µM compound on Panc-1 cell viability (Procedure S1); format: cell-based; conditions: Homo sapiens, after 72 h
Method: as §4, §5, §6, §7, §8

[4] = test system: human malignant melanoma cell line IGR39; test: MTT cell viability assay, IGR39; format: cell-based; conditions: 50 µM, 72 h
Method: as §1, §2, §3

[5] = test system: human triple-negative breast cancer MDA-MB-231; test: MTT cell viability assay, MDA-MB-231; format: cell-based; conditions: 50 µM, 72 h
Method: as §1, §2, §3

melanoma A375 cell = test system: melanoma A375 cell; parameters: method as in PMID 21700700; conditions: cited from earlier work
[6] = test system: IGR39, MDA-MB-231 and Panc-1 cell migration; test: 'Wound healing' cell migration assay, stated for all tested cell lines; format: cell-based, human; conditions: 10 µM, compared to the control
Method: as §11, §12

EC50 [1]	melting point	Structure (SMILES)	viability at 10 µM (IGR39 cells)	melanoma IGR39 spheroid growth (melanoma IGR39 spheroids)	MDA-MB-231 cell migration [2]	activity in 3D cell cultures (spheroids) [3]	viability at 10 µM (Panc-1 cells)	other results
–	–	CC(C)(C)c1nc(-c2cccc(NS(=O)(=O)c3c(F)cccc3F)c2F)c(-c2ccnc(N)n2)s1 [dabrafenib]	–	–	–	–	–	concentration reducing melanoma cell viability (melanoma cell): nanomolar
–	–	O=C(CSc1nnc(CCNc2ccccc2)n1-c1ccccc1)NN=Cc1ccccc1O [Compound 17, N′-(2-hydroxybenzylidene)-2-((4-phenyl-5-(2-(phenylamino)ethyl)-4H-1,2,4-triazol-3-yl)thio)acetohydrazide]	76 ± 7.2%	began to disintegrate	migrated slower	most active	79.7 ± 3.8%	activity against all tested cancer cell lines (screening) ([1]; 50 µM): most active
2 to 17 µM	215 to 216 °C	O=C(CSc1nnc(CCNc2ccccc2)n1-c1ccccc1)NN=Cc1ccc[nH]1 [Compound 14, N′-((1H-pyrrol-2-yl)methylene)-2-((4-phenyl-5-(2-(phenylamino)ethyl)-4H-1,2,4-triazol-3-yl)thio)acetohydrazide]	67.9 ± 1.8%	mostly inhibited	migrated slower	most active	–	activity against the IGR39 cell line (screening) [4]: least active; activity towards the triple-negative breast cancer cell line (screening) [5]: relatively higher activity
–	–	CN(C)/N=N/c1[nH]cnc1C(N)=O [Dacarbazine]	–	–	–	–	–	concentrations inhibiting melanoma A375 cell proliferation (melanoma A375 cell): 25 to 100 µM
2 to 17 µM	252 to 253 °C	O=C(CSc1nnc(CCNc2ccccc2)n1-c1ccccc1)NN=C1C(=O)Nc2ccccc21 [Compound 4, N′-(2-oxoindolin-3-ylidene)-2-((4-phenyl-5-(2-(phenylamino)ethyl)-4H-1,2,4-triazol-3-yl)thio)acetohydrazide]	–	mostly inhibited	–	most active	74.3 ± 3.4%	selectivity against the melanoma IGR39 cell line (screening) [4]: moderate selectivity; effect on cell migration [6]: did not possess activity
